From patent US20190330224A1, “ACC INHIBITORS AND USES THEREOF” (Gilead Apollo, LLC, priority 2015, published 2019)
Converted amounts (≈) assume the structure as drawn.

How the values were obtained:
[1] = compound concentration 10 ppm, foliar spray, evaluated 7 days after inoculation
Human ACC2 = Human ACC2 (Homo sapiens, UniProt O00763); assay: In vitro ACC2 inhibition assay (ADP-Glo), human ACC2; assay type: biochemical; details: 5 nM ACC2, 20 μM ATP, 20 μM acetyl-CoA
C. albicans ATCC 90028 = assay: Anti-Fungal Activity Assay (broth microtiter MIC), C. albicans; assay type: cell-based, Candida albicans; details: Candida albicans, ATCC90028, 48 h, 3 replicates; MIC recorded at 48 h; read-out: MIC C. albicans ATCC 90028
In short: (§1)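 Susceptibility testing used direct colony suspensions in RPMI 1640+MOPS from Sabouraud dextrose agar grown at 35° C. Endpoints were visual MICs at 48 h under CLSI M27-A3 microtiter conditions, plus a 24 h reading for soraphen.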

C. krusei ATCC 6258 = assay: Anti-Fungal Activity Assay (broth microtiter MIC), C. krusei; assay type: cell-based, Candida krusei; details: Pichia kudriavzevii, ATCC6258, 48 h, 3 replicates; MIC recorded at 48 h; read-out: MIC C. krusei ATCC 6258
In short: as §1

[2] = system: C. parapsilosis ATCC 22019; assay: Anti-Fungal Activity Assay (broth microtiter MIC), C. parapsilosis; assay type: cell-based, Candida parapsilosis; details: Lodderomyces parapsilosis, ATCC22019, 48 h, 3 replicates; MIC recorded at 48 h; read-out: MIC C. parapsilosis ATCC 22019
In short: as §1

Botrtyis cinerea (Bc) = assay: Growth inhibition assay of fungal pathogens, Bc; assay type: cell-based; details: 48 hours; read-out: Concentration at 90% Inhibition, Bc
In short: (§2)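 Spores in 17% V8 liquid medium were exposed to compound at final 50, 10 and 2 ppm or 2, 0.4 and 0.08 ppm with 2% DMSO. After 48 h, OD600 (blank-subtracted) and visual ratings were compared with the 2% DMSO control to give percent growth inhibition.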

[3] = system: Collectotrichum graminicola (Cg); assay: Growth inhibition assay of fungal pathogens, Cg; assay type: cell-based; details: 48 hours; read-out: Concentration at 90% Inhibition, Cg
In short: as §2

Diplodia maydis (Dm) = assay: Growth inhibition assay of fungal pathogens, Dm; assay type: cell-based; details: Stenocarpella maydis; 48 hours; read-out: Concentration at 90% Inhibition, Dm
In short: as §2

[4] = system: Fusarium moniliforme (Fm); assay: Growth inhibition assay of fungal pathogens, Fm; assay type: cell-based; details: Fusarium verticillioides; 48 hours; read-out: Concentration at 90% Inhibition, Fm
In short: as §2

[5] = system: Fusarium virguliforme (Fv); assay: Growth inhibition assay of fungal pathogens, Fv; assay type: cell-based; details: 48 hours, read-out: Concentration at 90% Inhibition, Fv
In short: as §2

[6] = system: Phytophthora capsici (Pc); assay: Growth inhibition assay of fungal pathogens, Pc; assay type: cell-based; details: 48 hours, read-out: Concentration at 90% Inhibition, Pc
In short: as §2

Rhizoctonia solani (Rs) = assay: Growth inhibition assay of fungal pathogens, Rs; assay type: cell-based; details: 48 hours, read-out: Concentration at 90% Inhibition, Rs
Septoria tritici (St) = assay: Growth inhibition assay of fungal pathogens, St; assay type: cell-based; details: Zymoseptoria tritici; 48 hours; read-out: Concentration at 90% Inhibition, St
In short: as §2

[7] = system: Blumeria graminis f sp. hordei; assay: Foliar protection test, barley powdery mildew control; assay type: in vivo, Blumeria graminis f sp. hordei on Hordeum vulgare cv. Perry; details: 168 h, compound concentration 50 ppm, foliar spray, evaluated 7 days after inoculation, read-out: Barley Powdery Mildew Control at 50 ppm
In short: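 Barley cv. Perry at first true leaf (6 days) sprayed to wetness on both leaf sides with compound in 5% acetone/0.005% Tween 80, typically at 200, 100, 50, 10 or 2 ppm. Inoculated 24 h later by shaking spores from colonized plants; kept at 20-22 °C, 70% RH. Mildew colonization scored 7 days later as percent control.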

Fungal ACC2 = Fungal ACC2 (UniProt Q00955); details: read-out: Fungal ACC2 (IC50, in vitro ACC2 inhibition)
Fungal ACC2, sequence (Q00955 whole entry): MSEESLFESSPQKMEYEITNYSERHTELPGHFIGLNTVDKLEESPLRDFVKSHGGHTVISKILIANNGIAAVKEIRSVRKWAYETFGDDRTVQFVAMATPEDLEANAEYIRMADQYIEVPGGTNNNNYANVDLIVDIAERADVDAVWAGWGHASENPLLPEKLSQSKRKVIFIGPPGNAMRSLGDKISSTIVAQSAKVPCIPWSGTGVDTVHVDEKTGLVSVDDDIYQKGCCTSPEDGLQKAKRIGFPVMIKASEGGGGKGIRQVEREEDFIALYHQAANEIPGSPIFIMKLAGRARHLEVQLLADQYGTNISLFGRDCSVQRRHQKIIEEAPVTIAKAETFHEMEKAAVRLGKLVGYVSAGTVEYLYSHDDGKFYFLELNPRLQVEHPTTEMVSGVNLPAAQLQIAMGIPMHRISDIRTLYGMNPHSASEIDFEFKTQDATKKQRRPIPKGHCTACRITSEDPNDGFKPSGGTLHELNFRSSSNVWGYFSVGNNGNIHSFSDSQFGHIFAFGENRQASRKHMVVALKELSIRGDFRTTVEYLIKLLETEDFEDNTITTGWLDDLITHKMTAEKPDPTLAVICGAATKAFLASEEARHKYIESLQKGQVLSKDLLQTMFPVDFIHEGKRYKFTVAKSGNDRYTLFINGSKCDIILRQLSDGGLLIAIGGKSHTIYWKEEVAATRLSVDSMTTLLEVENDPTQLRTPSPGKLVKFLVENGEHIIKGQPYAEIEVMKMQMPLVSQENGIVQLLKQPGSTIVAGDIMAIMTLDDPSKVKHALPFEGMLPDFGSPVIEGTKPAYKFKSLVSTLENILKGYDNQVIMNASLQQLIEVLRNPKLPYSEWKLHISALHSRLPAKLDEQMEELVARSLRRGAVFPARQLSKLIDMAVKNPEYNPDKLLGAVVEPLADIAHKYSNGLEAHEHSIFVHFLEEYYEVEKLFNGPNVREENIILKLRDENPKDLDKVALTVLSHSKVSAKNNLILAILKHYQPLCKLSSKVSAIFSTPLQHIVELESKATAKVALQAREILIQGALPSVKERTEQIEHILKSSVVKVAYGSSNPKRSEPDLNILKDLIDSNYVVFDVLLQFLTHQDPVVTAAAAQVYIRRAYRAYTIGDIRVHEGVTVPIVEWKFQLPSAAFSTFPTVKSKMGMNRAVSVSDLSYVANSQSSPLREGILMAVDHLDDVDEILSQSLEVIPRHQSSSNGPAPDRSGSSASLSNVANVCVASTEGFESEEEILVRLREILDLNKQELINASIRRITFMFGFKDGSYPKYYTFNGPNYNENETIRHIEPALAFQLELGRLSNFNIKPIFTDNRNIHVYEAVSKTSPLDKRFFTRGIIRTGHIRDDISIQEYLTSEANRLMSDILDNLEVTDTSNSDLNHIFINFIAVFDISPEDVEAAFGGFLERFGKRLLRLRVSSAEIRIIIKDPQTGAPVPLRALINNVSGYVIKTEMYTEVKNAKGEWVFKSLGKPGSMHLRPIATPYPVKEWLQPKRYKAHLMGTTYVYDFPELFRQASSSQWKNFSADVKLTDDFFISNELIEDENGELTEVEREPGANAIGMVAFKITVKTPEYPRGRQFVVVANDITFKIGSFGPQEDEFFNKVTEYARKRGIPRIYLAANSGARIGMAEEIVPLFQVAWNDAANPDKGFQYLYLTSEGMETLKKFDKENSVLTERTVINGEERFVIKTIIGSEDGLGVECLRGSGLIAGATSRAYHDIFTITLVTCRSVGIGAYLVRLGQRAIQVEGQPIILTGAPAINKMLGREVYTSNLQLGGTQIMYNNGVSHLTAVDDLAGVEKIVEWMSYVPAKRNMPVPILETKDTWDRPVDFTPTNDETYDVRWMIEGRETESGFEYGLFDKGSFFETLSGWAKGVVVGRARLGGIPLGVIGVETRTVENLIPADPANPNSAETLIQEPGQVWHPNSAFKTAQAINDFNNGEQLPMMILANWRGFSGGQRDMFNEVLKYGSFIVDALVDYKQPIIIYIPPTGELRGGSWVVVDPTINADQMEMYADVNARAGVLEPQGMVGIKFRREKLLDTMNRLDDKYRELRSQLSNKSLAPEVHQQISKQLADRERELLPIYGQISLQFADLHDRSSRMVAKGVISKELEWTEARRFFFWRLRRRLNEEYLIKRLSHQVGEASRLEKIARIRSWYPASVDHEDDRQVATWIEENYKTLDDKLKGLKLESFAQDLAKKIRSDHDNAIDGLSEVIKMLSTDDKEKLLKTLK

Human ACC2, sequence (O00763 whole entry): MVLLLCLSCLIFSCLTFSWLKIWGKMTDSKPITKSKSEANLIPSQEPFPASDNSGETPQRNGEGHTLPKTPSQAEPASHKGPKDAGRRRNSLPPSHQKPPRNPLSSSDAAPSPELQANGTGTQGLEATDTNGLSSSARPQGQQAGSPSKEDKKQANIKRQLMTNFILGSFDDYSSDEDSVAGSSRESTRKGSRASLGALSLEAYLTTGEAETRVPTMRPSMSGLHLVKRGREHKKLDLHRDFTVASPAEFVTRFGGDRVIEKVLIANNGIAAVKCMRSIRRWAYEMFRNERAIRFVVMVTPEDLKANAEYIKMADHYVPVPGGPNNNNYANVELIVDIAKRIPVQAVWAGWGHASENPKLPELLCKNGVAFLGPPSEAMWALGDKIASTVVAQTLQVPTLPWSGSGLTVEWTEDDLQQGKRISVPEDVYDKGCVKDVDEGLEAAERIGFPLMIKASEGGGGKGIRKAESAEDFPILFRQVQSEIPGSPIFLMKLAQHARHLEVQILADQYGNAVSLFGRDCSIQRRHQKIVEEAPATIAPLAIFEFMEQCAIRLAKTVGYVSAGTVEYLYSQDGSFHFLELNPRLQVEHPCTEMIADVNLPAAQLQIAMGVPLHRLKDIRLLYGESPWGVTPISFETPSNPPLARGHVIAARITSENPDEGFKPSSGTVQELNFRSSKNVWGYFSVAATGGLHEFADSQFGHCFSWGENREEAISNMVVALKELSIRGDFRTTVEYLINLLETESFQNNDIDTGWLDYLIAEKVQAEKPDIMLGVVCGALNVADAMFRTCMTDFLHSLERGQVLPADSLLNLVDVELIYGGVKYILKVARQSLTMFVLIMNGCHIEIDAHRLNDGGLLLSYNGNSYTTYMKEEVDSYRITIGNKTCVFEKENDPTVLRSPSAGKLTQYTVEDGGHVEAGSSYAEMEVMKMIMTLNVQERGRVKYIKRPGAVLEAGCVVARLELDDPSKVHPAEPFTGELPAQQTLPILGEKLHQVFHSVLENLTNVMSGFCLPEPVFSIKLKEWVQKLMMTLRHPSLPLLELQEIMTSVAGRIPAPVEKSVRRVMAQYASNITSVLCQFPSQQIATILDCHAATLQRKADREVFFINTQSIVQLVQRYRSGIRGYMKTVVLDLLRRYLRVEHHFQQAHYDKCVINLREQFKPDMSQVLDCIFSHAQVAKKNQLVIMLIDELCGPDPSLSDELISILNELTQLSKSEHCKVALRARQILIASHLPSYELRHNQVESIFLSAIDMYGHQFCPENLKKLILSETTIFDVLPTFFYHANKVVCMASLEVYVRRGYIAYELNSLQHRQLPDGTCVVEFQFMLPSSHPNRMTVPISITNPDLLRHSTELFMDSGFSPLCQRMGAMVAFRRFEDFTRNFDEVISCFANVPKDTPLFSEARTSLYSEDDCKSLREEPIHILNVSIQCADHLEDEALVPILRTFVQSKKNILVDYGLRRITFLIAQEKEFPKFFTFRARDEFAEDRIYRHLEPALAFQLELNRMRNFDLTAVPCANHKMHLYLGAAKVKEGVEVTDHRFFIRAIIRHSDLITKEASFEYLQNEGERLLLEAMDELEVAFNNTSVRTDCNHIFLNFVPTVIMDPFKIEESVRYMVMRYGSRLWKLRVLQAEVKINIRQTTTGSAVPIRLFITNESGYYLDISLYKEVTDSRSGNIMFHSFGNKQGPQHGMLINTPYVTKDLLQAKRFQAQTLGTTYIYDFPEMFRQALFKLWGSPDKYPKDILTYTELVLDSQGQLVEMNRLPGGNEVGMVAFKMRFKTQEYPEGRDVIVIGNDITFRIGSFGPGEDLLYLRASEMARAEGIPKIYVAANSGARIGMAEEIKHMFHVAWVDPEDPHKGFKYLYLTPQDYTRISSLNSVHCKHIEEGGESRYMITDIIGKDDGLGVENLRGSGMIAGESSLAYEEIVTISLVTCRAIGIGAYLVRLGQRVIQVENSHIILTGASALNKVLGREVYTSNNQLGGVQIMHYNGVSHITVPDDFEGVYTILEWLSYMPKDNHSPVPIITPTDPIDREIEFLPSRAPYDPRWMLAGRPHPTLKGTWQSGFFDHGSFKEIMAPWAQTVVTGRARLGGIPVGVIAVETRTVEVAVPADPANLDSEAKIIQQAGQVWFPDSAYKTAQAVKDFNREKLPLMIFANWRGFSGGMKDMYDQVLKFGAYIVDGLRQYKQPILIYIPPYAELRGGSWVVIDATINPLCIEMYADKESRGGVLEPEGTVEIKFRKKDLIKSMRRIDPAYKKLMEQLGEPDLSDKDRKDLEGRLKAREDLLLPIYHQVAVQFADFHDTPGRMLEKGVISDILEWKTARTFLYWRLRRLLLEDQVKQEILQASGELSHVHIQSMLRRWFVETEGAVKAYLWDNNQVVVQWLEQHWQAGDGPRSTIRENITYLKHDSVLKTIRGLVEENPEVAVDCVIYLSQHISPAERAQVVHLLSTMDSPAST

## COc1ccc(F)cc1[C@H](Cn1c(=O)n([C@H]2CCCNC2=O)c(=O)c2c(C)c(-n3nccn3)sc21)OCCO [Compound I-70, 1-((R)-2-(5-fluoro-2-methoxyphenyl)-2-(2-hydroxy-ethoxy)ethyl)-5-methyl-3-((S)-2-oxopiperidin-3-yl)-6-(2H-1,2,3-triazol-2-yl)thieno[2,3-d]pyrimidine-2,4(1H,3H)-dione]
[1]
  Barley Powdery Mildew Control at 10 ppm: D (provided a compound having <25% control of barley powdery mildew)
Human ACC2
  IC50: 10 to 100 nM
C. albicans ATCC 90028
  MIC: 2.1 to 4 mg/L (≈ 3.76 to 7.16 µM)
C. krusei ATCC 6258
  MIC: 2.1 to 4 mg/L (≈ 3.76 to 7.16 µM)
[2]
  MIC: 2.1 to 4 mg/L (≈ 3.76 to 7.16 µM)
Botrtyis cinerea (Bc)
  IC90: 2 mg/L (≈ 3.58 µM)
[3]
  IC90: 10 mg/L (≈ 17.9 µM)
Diplodia maydis (Dm)
  IC90: > 50 mg/L
[4]
  IC90: 2 mg/L (≈ 3.58 µM)
[5]
  IC90: 2 mg/L (≈ 3.58 µM)
[6]
  IC90: > 50 mg/L
Rhizoctonia solani (Rs)
  IC90: 10 mg/L (≈ 17.9 µM)
Septoria tritici (St)
  IC90: > 50 mg/L
[7]
  pest or weed control at 50 ppm: 50 to 69%
Fungal ACC2
  IC50: 0.7 to 2 nM

## COc1ccc(F)cc1[C@H](Cn1c(=O)n([C@@H]2CCCNC2=O)c(=O)c2c(C)c(-n3nccn3)sc21)OCCO [Compound I-71, 1-((R)-2-(5-fluoro-2-methoxyphenyl)-2-(2-hydroxy-ethoxy)ethyl)-5-methyl-3-((R)-2-oxopiperidin-3-yl)-6-(2H-1,2,3-triazol-2-yl)thieno[2,3-d]pyrimidine-2,4(1H,3H)-dione]
[1]
  Barley Powdery Mildew Control at 10 ppm: D (provided a compound having <25% control of barley powdery mildew)
Human ACC2
  IC50: 2 to 10 nM
C. albicans ATCC 90028
  MIC: 2.1 to 4 mg/L (≈ 3.76 to 7.16 µM)
C. krusei ATCC 6258
  MIC: 2.1 to 4 mg/L (≈ 3.76 to 7.16 µM)
[2]
  MIC: 2.1 to 4 mg/L (≈ 3.76 to 7.16 µM)
Botrtyis cinerea (Bc)
  IC90: 2 mg/L (≈ 3.58 µM)
[3]
  IC90: 10 mg/L (≈ 17.9 µM)
Diplodia maydis (Dm)
  IC90: > 50 mg/L
[4]
  IC90: 2 mg/L (≈ 3.58 µM)
[5]
  IC90: 2 mg/L (≈ 3.58 µM)
[6]
  IC90: > 50 mg/L
Rhizoctonia solani (Rs)
  IC90: 2 mg/L (≈ 3.58 µM)
Septoria tritici (St)
  IC90: > 50 mg/L
[7]
  pest or weed control at 50 ppm: 50 to 69%
Fungal ACC2
  IC50: 0.7 to 2 nM

## COc1ccc(F)cc1[C@H](Cn1c(=O)n([C@H]2CCCN(C)C2=O)c(=O)c2c(C)c(-n3nccn3)sc21)OCCO [Compound I-72, 1-((R)-2-(5-fluoro-2-methoxyphenyl)-2-(2-hydroxyethoxy)ethyl)-5-methyl-3-((S)-1-methyl-2-oxopiperidin-3-yl)-6-(2H-1,2,3-triazol-2-yl)thieno[2,3-d]pyrimidine-2,4(1H,3H)-dione]
[1]
  Barley Powdery Mildew Control at 10 ppm: D (provided a compound having <25% control of barley powdery mildew)
Human ACC2
  IC50: 2 to 10 nM
C. albicans ATCC 90028
  MIC: 2.1 to 4 mg/L (≈ 3.67 to 6.99 µM)
C. krusei ATCC 6258
  MIC: 2.1 to 4 mg/L (≈ 3.67 to 6.99 µM)
[2]
  MIC: 2.1 to 4 mg/L (≈ 3.67 to 6.99 µM)
Botrtyis cinerea (Bc)
  IC90: > 50 mg/L
[3]
  IC90: 10 mg/L (≈ 17.5 µM)
Diplodia maydis (Dm)
  IC90: 10 mg/L (≈ 17.5 µM)
[4]
  IC90: 2 mg/L (≈ 3.49 µM)
[5]
  IC90: 2 mg/L (≈ 3.49 µM)
[6]
  IC90: > 50 mg/L
Rhizoctonia solani (Rs)
  IC90: 2 mg/L (≈ 3.49 µM)
Septoria tritici (St)
  IC90: > 50 mg/L
[7]
  pest or weed control at 50 ppm: 25 to 49%
Fungal ACC2
  IC50: 0.7 to 2 nM

## COc1ccc(F)cc1[C@H](Cn1c(=O)n([C@@H]2CCCN(C)C2=O)c(=O)c2c(C)c(-n3nccn3)sc21)OCCO [Compound I-73, 1-((R)-2-(5-fluoro-2-methoxyphenyl)-2-(2-hydroxy-ethoxy)ethyl)-5-methyl-3-((R)-1-methyl-2-oxopiperidin-3-yl)-6-(2H-1,2,3-triazol-2-yl)thieno[2,3-d]pyrimidine-2,4(1H,3H)-dione]
[1]
  Barley Powdery Mildew Control at 10 ppm: D (provided a compound having <25% control of barley powdery mildew)
Human ACC2
  IC50: 10 to 100 nM
C. albicans ATCC 90028
  MIC: 2.1 to 4 mg/L (≈ 3.67 to 6.99 µM)
C. krusei ATCC 6258
  MIC: 2.1 to 4 mg/L (≈ 3.67 to 6.99 µM)
[2]
  MIC: 2.1 to 4 mg/L (≈ 3.67 to 6.99 µM)
Botrtyis cinerea (Bc)
  IC90: 10 mg/L (≈ 17.5 µM)
[3]
  IC90: 2 mg/L (≈ 3.49 µM)
Diplodia maydis (Dm)
  IC90: 2 mg/L (≈ 3.49 µM)
[4]
  IC90: 2 mg/L (≈ 3.49 µM)
[5]
  IC90: 2 mg/L (≈ 3.49 µM)
[6]
  IC90: > 50 mg/L
Rhizoctonia solani (Rs)
  IC90: 2 mg/L (≈ 3.49 µM)
Septoria tritici (St)
  IC90: > 50 mg/L
[7]
  pest or weed control at 50 ppm: 50 to 69%
Fungal ACC2
  IC50: 0.7 to 2 nM

## COc1ccc(F)cc1[C@H](Cn1c(=O)n([C@H]2CCNC2=O)c(=O)c2c(C)c(-n3nccn3)sc21)OCCO [Compound I-80, 1-((R)-2-(5-fluoro-2-methoxyphenyl)-2-(2-hydroxy-ethoxy)ethyl)-5-methyl-3-((S)-2-oxopyrrolidin-3-yl)-6-(2H-1,2,3-triazol-2-yl)thieno[2,3-d]pyrimidine-2,4(1H,3H)-dione]
[1]
  Barley Powdery Mildew Control at 10 ppm: D (provided a compound having <25% control of barley powdery mildew)
Human ACC2
  IC50: 2 to 10 nM
C. albicans ATCC 90028
  MIC: 2.1 to 4 mg/L (≈ 3.86 to 7.35 µM)
C. krusei ATCC 6258
  MIC: 2.1 to 4 mg/L (≈ 3.86 to 7.35 µM)
[2]
  MIC: 2.1 to 4 mg/L (≈ 3.86 to 7.35 µM)
Botrtyis cinerea (Bc)
  IC90: 2 mg/L (≈ 3.67 µM)
[3]
  IC90: > 50 mg/L
Diplodia maydis (Dm)
  IC90: > 50 mg/L
[4]
  IC90: 2 mg/L (≈ 3.67 µM)
[5]
  IC90: 10 mg/L (≈ 18.4 µM)
[6]
  IC90: > 50 mg/L
Rhizoctonia solani (Rs)
  IC90: 10 mg/L (≈ 18.4 µM)
Septoria tritici (St)
  IC90: > 50 mg/L
[7]
  pest or weed control at 50 ppm: 25 to 49%
Fungal ACC2
  IC50: 0.7 to 2 nM

## COc1ccc(F)cc1[C@H](Cn1c(=O)n([C@H]2CCN(C)C2=O)c(=O)c2c(C)c(-n3nccn3)sc21)OCCO [Compound I-82, 1-((R)-2-(5-fluoro-2-methoxyphenyl)-2-(2-hydroxy-ethoxy)ethyl)-5-methyl-3-((S)-1-methyl-2-oxopyrrolidin-3-yl)-6-(2H-1,2,3-triazol-2-yl)thieno[2,3-d]pyrimidine-2,4(1H,3H)-dione]
[1]
  Barley Powdery Mildew Control at 10 ppm: D (provided a compound having <25% control of barley powdery mildew)
Human ACC2
  IC50: 2 to 10 nM
C. albicans ATCC 90028
  MIC: 2.1 to 4 mg/L (≈ 3.76 to 7.16 µM)
C. krusei ATCC 6258
  MIC: 2.1 to 4 mg/L (≈ 3.76 to 7.16 µM)
[2]
  MIC: 2.1 to 4 mg/L (≈ 3.76 to 7.16 µM)
Botrtyis cinerea (Bc)
  IC90: 2 mg/L (≈ 3.58 µM)
[3]
  IC90: 10 mg/L (≈ 17.9 µM)
Diplodia maydis (Dm)
  IC90: 10 mg/L (≈ 17.9 µM)
[4]
  IC90: 2 mg/L (≈ 3.58 µM)
[5]
  IC90: 2 mg/L (≈ 3.58 µM)
[6]
  IC90: > 50 mg/L
Rhizoctonia solani (Rs)
  IC90: 2 mg/L (≈ 3.58 µM)
Septoria tritici (St)
  IC90: > 50 mg/L
[7]
  pest or weed control at 50 ppm: 25 to 49%
Fungal ACC2
  IC50: 0.7 to 2 nM

## COc1ccc(F)cc1[C@H](Cn1c(=O)n([C@@H]2CCN(C)C2=O)c(=O)c2c(C)c(-n3nccn3)sc21)OCCO [Compound I-83, 1-((R)-2-(5-fluoro-2-methoxyphenyl)-2-(2-hydroxy-ethoxy)ethyl)-5-methyl-3-((R)-1-methyl-2-oxopyrrolidin-3-yl)-6-(2H-1,2,3-triazol-2-yl)thieno[2,3-d]pyrimidine-2,4(1H,3H)-dione]
[1]
  Barley Powdery Mildew Control at 10 ppm: D (provided a compound having <25% control of barley powdery mildew)
Human ACC2
  IC50: 2 to 10 nM
C. albicans ATCC 90028
  MIC: 2.1 to 4 mg/L (≈ 3.76 to 7.16 µM)
C. krusei ATCC 6258
  MIC: 2.1 to 4 mg/L (≈ 3.76 to 7.16 µM)
[2]
  MIC: 2.1 to 4 mg/L (≈ 3.76 to 7.16 µM)
Botrtyis cinerea (Bc)
  IC90: 2 mg/L (≈ 3.58 µM)
[3]
  IC90: 2 mg/L (≈ 3.58 µM)
Diplodia maydis (Dm)
  IC90: 10 mg/L (≈ 17.9 µM)
[4]
  IC90: 2 mg/L (≈ 3.58 µM)
[5]
  IC90: 10 mg/L (≈ 17.9 µM)
[6]
  IC90: > 50 mg/L
Rhizoctonia solani (Rs)
  IC90: 2 mg/L (≈ 3.58 µM)
Septoria tritici (St)
  IC90: > 50 mg/L
[7]
  pest or weed control at 50 ppm: 70 to 84%
Fungal ACC2
  IC50: 0.7 to 2 nM
